Structures are written as SMILES. Activity calls are given as the source filed them. No cut-off for these calls is given here.

The species named for the experiment is Rattus norvegicus. In words: Reversible of increased arterial stiffness associated with diabetes in rat. It is filed as functional, organism-based.

Turning to `Cc1csc[n+]1CC(=O)[O-]`, the result was Active.

Values taken from ChEMBL document CHEMBL2424584, “Novel cross-link breaker based on zwitterion structure: synthesis, structure and druggability studies” (Eur J Med Chem, 2013).
